# Patent US20240398771A1, “TREATMENT OF SCLERODERMA AND RAYNAUD'S SYNDROME” (Aisa Pharma, Inc., priority 2023, published 2024)
# Experiments:
# participants with SSc-RP [1] = test: SHAQ Visual Analog Scale - Breathing Problems; assay type: in vivo, human; set-up: Visual Analog Scale-Breathing Problems, Baseline, Mean / Visual Analog Scale-Breathing Problems, Baseline, Median / Visual Analog Scale-Breathing Problems, In Clinic Visit (Day 12), Mean / Visual Analog Scale-Breathing Problems, In Clinic Visit (Day 12), Median / Visual Analog Scale-Breathing Problems, Change from Baseline, Mean / Visual Analog Scale-Breathing Problems, Change from Baseline, Median: scale not given here; conditions: for Visual Analog Scale-Breathing Problems, Baseline, Median: Modified ITT, Part A; for % improvement in Breathing (median): mITT
# Description: Results: Patients in the study were administered the Scleroderma Health Assessment Questionnaire (SHAQ) at the time of study entry and during clinic visits following the treatment period. The study is a two-part, parallel arm design, prospective, double-blind, randomized study conducted in Australia (Flinders Medical Center). 27 patients were randomized into the first phase of the study, following which a DSMB meeting was held, which reviewed data on the primary study endpoint and key Raynaud's secondary endpoints. Data on the SHAQ was not available for the DSMB to review. The mITT population, in which any data was available post treatment was 24 patients was the analysis population for this first part of the study. The second part (i.e., part B) of the study will randomize 36 patients in a double blind, randomized, prospective, placebo controlled, crossover study. In the first part (i.e., Part A) of the study for which data is presented, patients were randomized into 6 groups, cilnidipine at two doses (10 and 20 mg) alone and in combination with tadalafil 5 mg, tadalafil 5 mg alone, and placebo. […] The DSMB recommended that the study proceed into its double blind prospective cross overpowered second phase and compare cilnidipine 20 mg alone to placebo. […] Cilnidipine treatment may reduce patient-reported SSc disease disability compared to placebo • b. Cilnidipine treatment may reduce patient-reported SSc disease alternative disability compared to placebo • c. Cilnidipine treatment may reduce patient-reported SSc disease pain* compared to placebo • d. Cilnidipine treatment may reduce patient-reported SSc disease severity compared to placebo • e. Cilnidipine treatment may reduce patient-reported SSc disease skin ulcer severity rating compared to placebo • f Cilnidipine treatment may reduce patient-reported SSc disease breathing difficulty compared to placebo • g. […] SSc disease pain comprises not only pain from Raynaud's but joint pain, headache, odynophagia, back pain, pain from skin ulceration, and neuropathic pain). Table E includes results of the Scleroderma Health Assessment Questionnaire.
# participants with SSc-RP [2] = test: Average duration of weekly symptomatic RP attacks (minutes); assay type: in vivo, human; conditions: Excluding Outliers, ITT Part A, Baseline RCS subgroup 1 (Table B-4, stratum not given)
# Source text: The relevant metrics measured by this tool daily are: • Study medication • SSc-RP symptoms (Reporting an attack including duration of attack) • Severity of the attack considering all symptoms of the attack e.g. tingling, numbness, pain, color changes (VAS 0-10 cm scale) • Participant's location at the time of the attack (inside home/outside home) • Selecting symptoms experienced during the attack (tingling, numbness, pain, color changes, other) • Pain rating during the attack (11-point Likert scale) • The RCS based on how much difficulty participants had with Raynaud's today, how many attacks the participant had, and how long they lasted. Participants will also be asked to consider how much pain, numbness, or other symptoms the Raynaud's caused in fingers (including painful sores), and how much the Raynaud's alone affected the use of hands today (VAS 0-10 cm scale).
# The absolute change in average duration of weekly RP attacks from baseline to the end of each dosing period was and will be a secondary outcome variable. The sponsor-developed participant-informed diary was and will be used to record data. Average duration of weekly RP attacks is defined as the total duration of RP attacks divided by total number of RP attacks within the last 7 days of each dosing period. Total duration of RP attacks during the last 7 days of screening period divided by the total number of RP attacks will be used as baseline for the analysis of all periods. The variable will be calculated similar to frequency data as before.
# [3] = last 7 days of dosing period, listed as Cilnidipine 10 mg
# [4] = last 7 days of dosing period, listed as Cilnidipine 20 mg
# [5] = last 7 days of dosing period, listed as Pooled Cilnidipine
# [6] = last 7 days of screening period, listed as Cilnidipine 10 mg
# [7] = last 7 days of screening period, listed as Cilnidipine 20 mg
smiles,measurement,setting,value
"COCCOC(=O)C1=C(C)NC(C)=C(C(=O)OC/C=C/c2ccccc2)C1c1cccc([N+](=O)[O-])c1 (stereo not shown) [Cilnidipine, 1,4-dihydro-2,6-dimethyl,4-(3-nitrophenyl)-3,5-pyridinedicarboxylic acid 2-methoxyethyl (2 E)-3-phenyl-2-propenyl ester]","Visual Analog Scale-Breathing Problems, Baseline, Median",participants with SSc-RP [1]; Cilnidipine 10 mg,0.000
same,% improvement in Breathing (median),"participants with SSc-RP [1]; Cilnidipine 20 mg (n = 3), SHAQ",67% (median)
same,"VAS - Breathing problems, Baseline on a 0-10 VAS","participants with SSc-RP [1]; Cilnidipine 20 mg (n = 3), last footnote",**Baseline was 1.13 on a 0-10 VAS
same,"Visual Analog Scale-Breathing Problems, Baseline, Median",participants with SSc-RP [1]; Cilnidipine 20 mg,1.200
same,patient-reported SSc disease breathing difficulty compared to placebo,"participants with SSc-RP [1]; Example 4, SHAQ, mITT Part A",may reduce
same,% improvement in Breathing (median),"participants with SSc-RP [1]; Pooled Cilnidipine (n = 7), SHAQ",41% (median)
same,"Average Duration of weekly symptomatic RP attacks, Max",participants with SSc-RP [2]; [3],"31.6, 31.6 minutes"
same,"Average Duration of weekly symptomatic RP attacks, Mean",participants with SSc-RP [2]; [3],31.64 min
same,"Average Duration of weekly symptomatic RP attacks, Min",participants with SSc-RP [2]; [3],"31.6, 31.6 minutes"
same,"Average Duration of weekly symptomatic RP attacks, Q3",participants with SSc-RP [2]; [3],"31.64, 31.64 minutes"
same,"Average duration of weekly symptomatic RP attacks, Change from Baseline, Max",participants with SSc-RP [2]; [3],"−16.7, −16.7 minutes"
same,"Average duration of weekly symptomatic RP attacks, Change from Baseline, Min",participants with SSc-RP [2]; [3],"−16.7, −16.7 minutes"
same,"Average duration of weekly symptomatic RP attacks, Change from Baseline, Q1",participants with SSc-RP [2]; [3],"−16.74, −16.74 minutes"
same,"Average duration of weekly symptomatic RP attacks, Percent Change from Baseline, Max",participants with SSc-RP [2]; [3],"−34.6, −34.6%"
same,Average Duration of weekly symptomatic RP attacks,participants with SSc-RP [2]; [4],3.0 min
same,"Average Duration of weekly symptomatic RP attacks, Max",participants with SSc-RP [2]; [4],30.5 min
same,"Average Duration of weekly symptomatic RP attacks, Q1",participants with SSc-RP [2]; [4],3.00 min
same,"Average Duration of weekly symptomatic RP attacks, Q3",participants with SSc-RP [2]; [4],30.45 min
same,"Average duration of weekly symptomatic RP attacks, Change from Baseline",participants with SSc-RP [2]; [4],-10.3 min
same,"Average duration of weekly symptomatic RP attacks, Change from Baseline, Max",participants with SSc-RP [2]; [4],4.1 min
same,"Average duration of weekly symptomatic RP attacks, Change from Baseline, Mean",participants with SSc-RP [2]; [4],-3.13 min
same,"Average duration of weekly symptomatic RP attacks, Change from Baseline, Median",participants with SSc-RP [2]; [4],-3.13 min
same,"Average duration of weekly symptomatic RP attacks, Change from Baseline, Q1",participants with SSc-RP [2]; [4],-10.33 min
same,"Average duration of weekly symptomatic RP attacks, Change from Baseline, Q3",participants with SSc-RP [2]; [4],4.07 min
same,"Average duration of weekly symptomatic RP attacks, Percent Change from Baseline, Max",participants with SSc-RP [2]; [4],15.4%
same,"Average duration of weekly symptomatic RP attacks, Percent Change from Baseline, Mean",participants with SSc-RP [2]; [4],−31.05%
same,"Average duration of weekly symptomatic RP attacks, Percent Change from Baseline, Median",participants with SSc-RP [2]; [4],−31.05%
same,"Average duration of weekly symptomatic RP attacks, Percent Change from Baseline, Min",participants with SSc-RP [2]; [4],−77.5%
same,"Average duration of weekly symptomatic RP attacks, Percent Change from Baseline, Q1",participants with SSc-RP [2]; [4],−77.50%
same,"Average duration of weekly symptomatic RP attacks, Percent Change from Baseline, Q3",participants with SSc-RP [2]; [4],15.41%
same,Average Duration of weekly symptomatic RP attacks,participants with SSc-RP [2]; [5],3.0 min
same,"Average Duration of weekly symptomatic RP attacks, Max",participants with SSc-RP [2]; [5],31.6 min
same,"Average Duration of weekly symptomatic RP attacks, Q1",participants with SSc-RP [2]; [5],3.00 min
same,"Average duration of weekly symptomatic RP attacks, Change from Baseline",participants with SSc-RP [2]; [5],-16.7 min
same,"Average duration of weekly symptomatic RP attacks, Change from Baseline, Max",participants with SSc-RP [2]; [5],4.1 min
same,"Average duration of weekly symptomatic RP attacks, Change from Baseline, Mean",participants with SSc-RP [2]; [5],-7.67 min
same,"Average duration of weekly symptomatic RP attacks, Change from Baseline, Q1",participants with SSc-RP [2]; [5],-16.74 min
same,"Average duration of weekly symptomatic RP attacks, Change from Baseline, Q3",participants with SSc-RP [2]; [5],4.07 min
same,"Average duration of weekly symptomatic RP attacks, Percent Change from Baseline, Max",participants with SSc-RP [2]; [5],15.4%
same,"Average duration of weekly symptomatic RP attacks, Percent Change from Baseline, Mean",participants with SSc-RP [2]; [5],−32.23%
same,"Average duration of weekly symptomatic RP attacks, Percent Change from Baseline, Median",participants with SSc-RP [2]; [5],−34.60%
same,"Average duration of weekly symptomatic RP attacks, Percent Change from Baseline, Min",participants with SSc-RP [2]; [5],−77.5%
same,"Average duration of weekly symptomatic RP attacks, Percent Change from Baseline, Q1",participants with SSc-RP [2]; [5],−77.50%
same,"Average duration of weekly symptomatic RP attacks, Percent Change from Baseline, Q3",participants with SSc-RP [2]; [5],15.41%
same,"Average duration of weekly symptomatic RP attacks, Baseline, Max",participants with SSc-RP [2]; [6],"48.4, 48.4 minutes"
same,"Average duration of weekly symptomatic RP attacks, Baseline, Mean",participants with SSc-RP [2]; [6],48.38 min
same,"Average duration of weekly symptomatic RP attacks, Baseline, Median",participants with SSc-RP [2]; [6],48.38 min
same,"Average duration of weekly symptomatic RP attacks, Baseline, Min",participants with SSc-RP [2]; [6],"48.4, 48.4 minutes"
same,"Average duration of weekly symptomatic RP attacks, Baseline, Q1",participants with SSc-RP [2]; [6],"48.38, 48.38 minutes"
same,"Average duration of weekly symptomatic RP attacks, Baseline, Q3",participants with SSc-RP [2]; [6],"48.38, 48.38 minutes"
same,"Average duration of weekly symptomatic RP attacks, Baseline",participants with SSc-RP [2]; [7],13.3 min
same,"Average duration of weekly symptomatic RP attacks, Baseline, Max",participants with SSc-RP [2]; [7],26.4 min
same,"Average duration of weekly symptomatic RP attacks, Baseline, Mean",participants with SSc-RP [2]; [7],19.86 min
same,"Average duration of weekly symptomatic RP attacks, Baseline, Median",participants with SSc-RP [2]; [7],19.86 min
same,"Average duration of weekly symptomatic RP attacks, Baseline, Q1",participants with SSc-RP [2]; [7],13.33 min
